Source: publication PMC4666783 (Organic & biomolecular chemistry, 2015)
Where two headings read alike, the source gives them in different places.

Columns and labels:
HIV-1 = assay: Antiviral activity, MTT assay; format: cell-based; conditions: for IC50: Human immunodeficiency virus 1, read-out: IC50 (antiviral); for antiviral potency: result in words, comparator as stated
HIV-1 protease = HIV-1 protease (Human immunodeficiency virus type 1 group M subtype B, UniProt P04585); assay: HIV-1 protease enzyme inhibition, assay developed by Toth and Marshall; format: biochemical; conditions: for enzyme inhibitory activity: result in words, comparator as stated
[1] = system: HIVDRV^RP20 drug resistant strains of HIV; assay: microbe, parasite or virus in culture; format: cell-based, HIV-1

With `CC(C)CN(C[C@@H](O)[C@H](Cc1ccccc1)NC(=O)O[C@H]1CO[C@H]2OCC[C@H]21)S(=O)(=O)c1ccc(N)cc1` [Darunavir, darunavir, reference compound] the IC50 (HIV-1) was 1.6 nM.
In the case of `COc1ccc(S(=O)(=O)N(CC(C)C)C[C@@H](O)[C@H](Cc2ccccc2)NC(=O)O[C@H]2CCO[C@H]3OC[C@@H](OC)[C@H]32)cc1` [Inhibitor 30a, (3S,3aR,4S,7aS)-3-Methoxyhexahydro-2H-furo[2,3-b]pyran-4-yl (2S,3R)-3-hydroxy-4-(N-isobutyl-4-methoxyphenylsulfonamido)-1-phenylbutan-2-yl carbamate], the Ki (HIV-1 protease; at least 5 data points, standard error less than 7%) is reported as 1.38 nM.
For `COc1ccc(S(=O)(=O)N(CC(C)C)C[C@@H](O)[C@H](Cc2ccccc2)NC(=O)O[C@H]2CCO[C@H]3OC[C@H](OC)[C@H]32)cc1` [Inhibitor 30b, (3R,3aR,4S,7aS)-3-Methoxyhexahydro-2H-furo[2,3-b]pyran-4-yl (2S,3R)-3-hydroxy-4-(N-isobutyl-4-methoxyphenylsulfonamido)-1-phenylbutan-2-ylcarbamate], the IC50 (HIV-1) was 0.2 nM, the “antiviral potency” value (HIV-1) was “subnanomolar antiviral activity” and the Ki (HIV-1 protease) was 0.0045 nM. For the same compound, the “fold better enzymatic Ki compared to compound 30a” value (HIV-1 protease; 30b vs 30a) was “over 300 fold”.
`CO[C@H]1CO[C@@H]2OCC[C@H](OC(=O)N[C@@H](Cc3ccccc3)[C@H](O)CN(CC(C)C)S(=O)(=O)c3ccc(N)cc3)[C@@H]21` [Inhibitor 30c, (3R,3aR,4S,7aS)-3-Methoxyhexahydro-2H-furo[2,3-b]pyran-4-yl (2S,3R)-4-(4-amino-N-isobutylphenylsulfonamido)-3-hydroxy-1-phenylbutan-2-ylcarbamate] showed an IC50 (HIV-1) of 15 nM and a Ki (HIV-1 protease) of 0.037 nM.
For `CCO[C@H]1CO[C@@H]2OCC[C@H](OC(=O)N[C@@H](Cc3ccccc3)[C@H](O)CN(CC(C)C)S(=O)(=O)c3ccc(OC)cc3)[C@@H]21` [Inhibitor 30d, (3R,3aR,4S,7aS)-3-Ethoxyhexahydro-2H-furo[2,3-b]pyran-4-yl (2S,3R)-3-hydroxy-4-(N-isobutyl-4-methoxyphenyl-sulfonamido)-1-phenylbutan-2-ylcarbamate], the Ki (HIV-1 protease) was 0.0033 nM and the “enzyme inhibitory activity” value (HIV-1 protease) was “comparable enzyme inhibitory activity”.
For `COc1ccc(S(=O)(=O)N(CC(C)C)C[C@@H](O)[C@H](Cc2ccccc2)NC(=O)O[C@H]2CCO[C@H]3OC[C@H](OCc4ccccc4)[C@H]32)cc1` [Inhibitor 30e, (3R,3aR,4S,7aS)-3-(Benzyloxy)hexahydro-2H-furo[2,3-b]pyran-4-yl (2S,3R)-3-hydroxy-4-(N-isobutyl-4-methoxy-phenylsulfonamido)-1-phenylbutan-2-ylcarbamate], the IC50 (HIV-1) was 0.45 nM and the Ki (HIV-1 protease) was 0.012 nM.
In the case of `COc1ccc(S(=O)(=O)N(CC(C)C)C[C@@H](O)[C@H](Cc2ccccc2)NC(=O)O[C@H]2CCO[C@H]3OC[C@H](O)[C@H]32)cc1` [Inhibitor 30f, (3R,3aS,4S,7aS)-3-Hydroxyhexahydro-2H-furo[2,3-b]pyran-4-yl (2S,3R)-3-hydroxy-4-(N-isobutyl-4-methoxyphenyl-sulfonamido)-1-phenylbutan-2-ylcarbamate], the IC50 (HIV-1) is reported as 3.15 nM, the “antiviral activity against resistant variant” value ([1]; HIVDRV^RP20, preliminary assessment) is reported as “maintained full antiviral activity” and the IC50 ([1]; Human immunodeficiency virus 1, read-out: IC50 against HIVDRV^RP20) is reported as 3.3 nM. The Ki (HIV-1 protease) was 0.06 nM and the “fold less potent than compound 30b” value (HIV-1 protease; enzyme inhibitory and antiviral activity, 30f vs 30b) was 10 fold.
In the case of `CCN[C@H]1CO[C@@H]2OCC[C@H](OC(=O)N[C@@H](Cc3ccccc3)[C@H](O)CN(CC(C)C)S(=O)(=O)c3ccc(OC)cc3)[C@@H]21` [Inhibitor 30j, (3R,3aS,4S,7aS)-3-(Ethylamino)hexahydro-2H-furo[2,3-b]pyran-4-yl (2S,3R)-3-hydroxy-4-(N-isobutyl-4-methoxyphenylsulfonamido)-1-phenylbutan-2-ylcarbamate], the “antiviral potency” value (HIV-1) is reported as “subnanomolar antiviral activity”.
With `CCN[C@H]1CO[C@@H]2OCC[C@H](OC(=O)N[C@@H](Cc3ccccc3)[C@H](O)CN(CC(C)C)S(=O)(=O)c3ccc(N)cc3)[C@@H]21` [Inhibitor 30k, (3R,3aS,4S,7aS)-3-(Ethylamino)hexahydro-2H-furo[2,3-b]pyran-4-yl (2S,3R)-4-(4-amino-N-isobutylphenylsulfonamido)-3-hydroxy-1-phenylbutan-2-ylcarbamate] the “antiviral potency” value (HIV-1) was “significant reduction in antiviral potency”.
`CCCN[C@H]1CO[C@@H]2OCC[C@H](OC(=O)N[C@@H](Cc3ccccc3)[C@H](O)CN(CC(C)C)S(=O)(=O)c3ccc(OC)cc3)[C@@H]21` [Inhibitor 30l, (3R,3aS,4S,7aS)-3-(Propylamino)hexahydro-2H-furo[2,3-b]pyran-4-yl (2S,3R)-3-hydroxy-4-(N-isobutyl-4-methoxyphenylsulfonamido)-1-phenylbutan-2-ylcarbamate] was tested, and the “fold reduction in antiviral potency compared to 30j” value (HIV-1; 30l vs 30j) was about 3 fold.
With `COc1ccc(S(=O)(=O)N(CC(C)C)C[C@@H](O)[C@H](Cc2ccccc2)NC(=O)O[C@H]2CCO[C@H]3OC[C@H](N(C)C)[C@H]32)cc1` [Inhibitor 30m, (3R,3aS,4S,7aS)-3-(Dimethylamino)hexahydro-2H-furo[2,3-b]pyran-4-yl (2S,3R)-3-hydroxy-4-(N-isobutyl-4-methoxyphenylsulfonamido)-1-phenylbutan-2-ylcarbamate] the “fold improved antiviral activity over 30i” value (HIV-1; 30m vs 30i) was 3 fold and the “enzyme inhibitory activity” value (HIV-1 protease) was “reduction in enzyme Ki”.
